This passage reports IC50 and EC50 results from patent publication US9546153B2, “Bicyclic heterocycle substituted pyridyl compounds useful as kinase modulators” (BRISTOL-MYERS SQUIBB COMPANY, priority 2012, dated 2017).

The target of one experiment is IRAK4 (Homo sapiens (Human), UniProt Q9NWZ3). The experiment is described as follows: IRAK4 Inhibition Assay. The class given is biochemical. Particulars: ATP 500 μM; IRAK4 0.6 nM; 60 min at room temperature. The procedure:
The assays were performed in U-bottom 384-well plates. […] The reaction was initiated by the combination of IRAK4 with substrates and test compounds. The reaction was incubated at room temperature for 60 min. and terminated by adding 45 μL of 35 mM EDTA to each sample. The reaction mixture was analyzed on the Caliper LABCHIP® 3000 (Caliper, Hopkinton, Mass.) by electrophoretic separation of the fluorescent substrate and phosphorylated product.

The test system of experiment [1] is TLR2 induced IL-6 in peripheral blood mononuclear cells (PBMCs). In words: PBMC TLR2 Induced IL-6 Assay. Format: cell-based, human. Particulars: human PBMCs, 10 μg/ml lipoteichoic acid for 5 hours, IL-6 by ELISA; for IC50: value without asterisk, read-out: Cell IC50; for EC50: EC50 determinations are indicated with an asterisk, read-out: Cell EC50 (asterisk). The procedure:
Peripheral blood mononuclear cells (PBMCs) were isolated from human blood containing the anti-coagulant EDTA (2.5 mM) by centrifugation over a FICOLL® gradient. PBMCs (250000 cells/well) were cultured in assay media (RPMI with 10% heat inactivated FCS) with compounds for 30 minutes at 37° C. in a 5% CO2 incubator. Following pretreatment with compounds, cells were stimulated for 5 hours with 10 μg/ml lipoteichoic acid (Invivogen, San Diego, Calif.), a TLR2 agonist. At the end of the culture, plates were centrifuged at 1800 rpm for 10 minutes to pellet the cells. Supernatants were harvested and analyzed for IL-6 levels by ELISA (BD Biosciences, San Jose, Calif.). Inhibition was calculated as either an IC50 or EC50. EC50 determinations are indicated with an asterisk.
For orientation: In an ELISA, binding on a coated surface is turned into a signal by an enzyme label.

The structures appear in SMILES notation. “And” between values parts separate entries of the source, which are not always exact repeats. Equal values may be shown once. Read-outs that look alike come from different tables or passages of the source.

Sequence of IRAK4 (Q9NWZ3 whole entry, species assumed): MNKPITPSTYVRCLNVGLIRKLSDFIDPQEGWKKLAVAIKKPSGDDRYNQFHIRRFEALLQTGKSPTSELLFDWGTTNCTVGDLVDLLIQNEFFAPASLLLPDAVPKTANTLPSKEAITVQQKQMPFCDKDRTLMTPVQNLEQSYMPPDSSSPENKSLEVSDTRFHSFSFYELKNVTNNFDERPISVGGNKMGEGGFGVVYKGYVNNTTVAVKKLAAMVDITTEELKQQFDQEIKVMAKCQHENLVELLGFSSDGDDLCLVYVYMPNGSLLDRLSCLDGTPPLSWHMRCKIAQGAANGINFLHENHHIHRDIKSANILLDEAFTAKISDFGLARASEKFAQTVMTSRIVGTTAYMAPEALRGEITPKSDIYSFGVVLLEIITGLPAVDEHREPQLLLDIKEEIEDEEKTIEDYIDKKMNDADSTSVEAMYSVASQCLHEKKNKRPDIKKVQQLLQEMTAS

For `CNC(=O)c1cnc(Nc2ccc3ncsc3c2)cc1NC1C2CC3CC1CC(O)(C3)C2` (single isomer, unassigned) [Example 146], the IC50 on IRAK4 was 53.9 nM; in experiment [1] (Homo sapiens, PBMC, 5 h), 550 nM.

In the case of `CNC(=O)c1cnc(Nc2ccc3ncsc3c2)cc1NC1C2CC3CC1CC(O)(C3)C2` (single isomer, unassigned) [Example 147], the IC50 is 17.4 nM on IRAK4 and 507 nM in experiment [1].

Consider `CNC(=O)c1cnc(Nc2ccc3ncsc3c2)cc1NC1C2CC3CC1CC(O)(C3)C2` (single isomer, unassigned) [Example 148], for which the IC50 was 24.5 nM at IRAK4 and 456 nM in experiment [1].

For `CC(C)(O)[C@H](F)CNC(=O)c1cnc(Nc2ccc3ncsc3c2)cc1NC1CCC(F)C1` (single isomer, unassigned) [Example 362, 6-(benzo[d]thiazol-6-ylamino)-N-(2-fluoro-3-hydroxy-3-methylbutyl)-4-(3-fluorocyclopentylamino)nicotinamide], the IC50 on IRAK4 was found to be 2.9 nM; in experiment [1], 44 nM.

For `CC(C)(O)[C@H](F)CNC(=O)c1cnc(Nc2ccc3ncsc3c2)cc1NC1CCC(F)C1` (single isomer, unassigned) [Example 363, 6-(benzo[d]thiazol-6-ylamino)-N-(2-fluoro-3-hydroxy-3-methylbutyl)-4-(3-fluorocyclopentylamino)nicotinamide], the IC50 on IRAK4 is 2.5 nM; in experiment [1] it was 87 nM.

Turning to `CC(C)(O)[C@H](F)CNC(=O)c1cnc(Nc2ccc3ncsc3c2)cc1NC1CCC(F)C1` (single isomer, unassigned) [Example 364, 6-(benzo[d]thiazol-6-ylamino)-N-(2-fluoro-3-hydroxy-3-methylbutyl)-4-(3-fluorocyclopentylamino)nicotinamide], the values for the IC50 (on IRAK4; in experiment [1]) were 3.6 nM and 92 nM, respectively.

For the compound `CC(C)(O)[C@H](F)CNC(=O)c1cnc(Nc2ccc3ncsc3c2)cc1NC1CCC(F)C1` (single isomer, unassigned) [Example 365, 6-(benzo[d]thiazol-6-ylamino)-N-(2-fluoro-3-hydroxy-3-methylbutyl)-4-(3-fluorocyclopentylamino)nicotinamide], the IC50 is 5.8 nM at IRAK4 and 97 nM in experiment [1].

For the compound `Cc1cc2nc(Nc3cc(NC4CCC(F)C4)c(C(=O)NC[C@@H](F)C(C)(C)O)cn3)ccn2n1` (single isomer, unassigned) [Example 381], the IC50 at IRAK4 amounted to 6.1 nM; in experiment [1] (Homo sapiens, PBMC, 5 h) it was 376 nM.

For the compound `CNC(=O)c1cnc(Nc2ccc3c(c2)C(F)(F)C(=O)N3)cc1NC1CCCC1` [Example 1, 4-(cyclopentylamino)-6-(3,3-difluoro-2-oxoindolin-5-ylamino)-N-methylnicotinamide], the IC50 was 4.4 nM on IRAK4 and 612 nM in experiment [1] (Homo sapiens, PBMC, 5 h).

With `CCOC(=O)c1cn2c(n1)sc1cc(Nc3cc(NC4CCCC4)c(C(=O)NC)cn3)ccc12` [Example 3], the IC50 amounted to 17.1 nM on IRAK4 and 180 nM in experiment [1] (Homo sapiens, PBMC, 5 h).

For the compound `CNC(=O)c1cnc(Nc2nc3ccc(Cl)nc3s2)cc1NC(C)C` [Example 4, 6-(5-chlorothiazolo[5,4-b]pyridin-2-ylamino)-4-(isopropylamino)-N-methylnicotinamide], the IC50 on IRAK4 was 18.2 nM; in experiment [1] (Homo sapiens, PBMC, 5 h) it was 639 nM.

Regarding `CC(C)Nc1cc(Nc2ccc3ncsc3c2)ncc1C(=O)NC[C@@H](F)CO` [Example 5, (R)-6-(benzo[d]thiazol-6-ylamino)-N-(2-fluoro-3-hydroxypropyl)-4-(isopropylamino)nicotinamide], the concentration for half-maximal inhibition (IC50) was 9.6 nM at IRAK4 and 484 nM in experiment [1] (Homo sapiens, PBMC, 5 h).

For the compound `CC(C)Nc1cc(Nc2ccc3ncsc3c2)ncc1C(=O)NCCC(C)(C)O` [Example 8], the IC50 at IRAK4 was found to be 4.1 nM; in experiment [1] (Homo sapiens, PBMC, 5 h) it was 290 nM.

As to `CC(C)(O)CCNC(=O)c1cnc(Nc2ccc3ncsc3c2)cc1NC1CC1` [Example 9], the IC50 on IRAK4 came out at 10 nM; in experiment [1] (Homo sapiens, PBMC, 5 h) it was 289 nM.

`O=C(NCCC1(O)CCC1)c1cnc(Nc2ccc3ncsc3c2)cc1NC1CC1` [Example 10]: the IC50 on IRAK4 came to 5.1 nM; in experiment [1] (Homo sapiens, PBMC, 5 h), 115 nM.

As for `CC(C)Nc1cc(Nc2ccc3ncsc3c2)ncc1C(=O)NCCc1ccc(C(N)=O)cc1` [Example 11], the IC50 on IRAK4 stood at 7.8 nM; in experiment [1] (Homo sapiens, PBMC, 5 h) it was 726 nM.

Take `CNC(=O)c1ccc(CCNC(=O)c2cnc(Nc3ccc4ncsc4c3)cc2NC(C)C)cc1` [Example 12]: the IC50 came out at 5.6 nM on IRAK4 and 311 nM in experiment [1] (Homo sapiens, PBMC, 5 h).

With `CC(C)Nc1cc(Nc2ccc3ncsc3c2)ncc1C(=O)NC[C@@H](F)C(O)C(C)C` (some centres unmarked) [Example 13], the IC50 was determined as 3 nM at IRAK4 and 107 nM in experiment [1].

Regarding `CC(C)Nc1cc(Nc2ccc3ncsc3c2)ncc1C(=O)NC[C@@H](F)C(O)C(C)C` (some centres unmarked) [Example 14], the IC50 worked out at 4.3 nM on IRAK4 and 461 nM in experiment [1].

Turning to `CC(C)Nc1cc(Nc2ccc3ncsc3c2)ncc1C(=O)NC[C@@H](F)C(O)C1CC1` (some centres unmarked) [Example 15], the half-inhibitory concentration (IC50) on IRAK4 was 5.2 nM; in experiment [1] (Homo sapiens, PBMC, 5 h), 541 nM.

Regarding `CC(C)Nc1cc(Nc2ccc3ncsc3c2)ncc1C(=O)NC[C@@H](F)C(O)C1CC1` (some centres unmarked) [Example 16], the half-inhibitory concentration (IC50) turned out to be 5.2 nM on IRAK4 and 595 nM in experiment [1].

As for `CC(C)Nc1cc(Nc2ccc3ncsc3c2)ncc1C(=O)NC[C@@H](F)C(C)(O)C(F)(F)F` (some centres unmarked) [Example 17], the IC50 on IRAK4 worked out at 4.7 nM; in experiment [1] (Homo sapiens, PBMC, 5 h) it was 221 nM.

In the case of `CC(C)Nc1cc(Nc2ccc3ncsc3c2)ncc1C(=O)NC[C@@H](F)C(C)(O)C(F)(F)F` (some centres unmarked) [Example 18], the IC50 at IRAK4 was 6.9 nM; in experiment [1], 269 nM.

For `CC(O)([C@H](F)CNC(=O)c1cnc(Nc2ccc3ncsc3c2)cc1NC1CC1)C(F)(F)F` (some centres unmarked) [Example 19], the IC50 amounted to 4.3 nM at IRAK4 and 177 nM in experiment [1].

As for `CC(O)([C@H](F)CNC(=O)c1cnc(Nc2ccc3ncsc3c2)cc1NC1CC1)C(F)(F)F` (some centres unmarked) [Example 20], the results for the IC50 (on IRAK4; in experiment [1]) were 4.9 nM and 562 nM, respectively.

For the compound `CC(C)Nc1cc(Nc2ccc3ncoc3c2)ncc1C(=O)NC[C@@H](F)C(O)C(C)C` (some centres unmarked) [Example 24], the IC50 at IRAK4 stood at 4 nM; in experiment [1] (Homo sapiens, PBMC, 5 h) it was 468 nM.

Consider `CC(C)C(O)[C@H](F)CNC(=O)c1cnc(Nc2ccc3ncsc3c2)cc1NC1CC1` (some centres unmarked) [Example 25], for which the IC50 at IRAK4 is 3.5 nM; in experiment [1] it was 60 nM.

Regarding `CC(C)C(O)[C@H](F)CNC(=O)c1cnc(Nc2ccc3ncsc3c2)cc1NC1CC1` (some centres unmarked) [Example 26], the IC50 on IRAK4 worked out at 7.3 nM; in experiment [1] it was 121 nM.

For the compound `CC(C)C(O)C(F)CNC(=O)c1cnc(Nc2ccc3ncsc3c2)cc1NC(c1ccccc1)C(O)CO` (centres unmarked) [Example 27], the IC50 is 3 nM at IRAK4 and 86 nM in experiment [1] (Homo sapiens, PBMC, 5 h).

As for `CC(O)[C@H](F)CNC(=O)c1cnc(Nc2ccc3ncsc3c2)cc1NC1CCCC1` (some centres unmarked) [Example 28], the IC50 on IRAK4 was found to be 7.8 nM; in experiment [1] (Homo sapiens, PBMC, 5 h), 195 nM.

Turning to `CC(O)[C@H](F)CNC(=O)c1cnc(Nc2ccc3ncsc3c2)cc1NC1CCCC1` (some centres unmarked) [Example 29], the IC50 turned out to be 9.2 nM on IRAK4 and 128 nM in experiment [1].

For `CC(C)(O)C1CC(Nc2cc(Nc3ccc4ncsc4c3)ncc2C(=O)NC[C@@H](F)C(O)(C2CC2)C(F)(F)F)C1` (some centres unmarked) [Example 32], the IC50 amounted to 15 nM on IRAK4 and 511 nM in experiment [1] (Homo sapiens, PBMC, 5 h).

For the compound `CC(C)(O)[C@H](F)CNC(=O)c1cnc(Nc2ccc3ncsc3c2)cc1NC1CCCC1` [Example 33, (R)-6-(benzo[d]thiazol-6-ylamino)-4-(cyclopentylamino)-N-(2-fluoro-3-hydroxy-3-methylbutyl)nicotinamide], the concentration for half-maximal inhibition (IC50) was found to be 3.7 nM at IRAK4 and 64 nM in experiment [1] (Homo sapiens, PBMC, 5 h).

As to `CC(C)Nc1cc(Nc2ccc3ncsc3c2)ncc1C(=O)NC[C@@H](F)C(C)(C)O` [Example 35], the IC50 is 2.6 nM at IRAK4 and 482 nM in experiment [1] (Homo sapiens, PBMC, 5 h).

In the case of `CC1COCCC1Nc1cc(Nc2ccc3ncsc3c2)ncc1C(=O)NC[C@@H](F)C(C)(C)O` (some centres unmarked) [Example 234], the IC50 at IRAK4 is 4.4 nM and 3.2 nM.

With `Cc1cc2nc(Nc3cc(NC(C)C)c(C(=O)NC[C@@H](F)C(C)(C)O)cn3)ccn2n1` [Example 379], the IC50 at IRAK4 amounted to 6.3 nM.

Consider `CC(C)(O)[C@H](F)CNC(=O)c1cnc(Nc2nc3ccnn3cc2F)cc1NC1CCCC1O` (some centres unmarked) [Example 465], for which the IC50 in experiment [1] was 388 nM.

On to `CC(C)(O)[C@H](F)CNC(=O)c1cnc(Nc2nc3ccnn3cc2F)cc1N[C@H]1CCC[C@@H]1O` [Example 466], for which the IC50 in experiment [1] (Homo sapiens, PBMC, 5 h) came out at 212 nM.

Regarding `CC(C)(O)[C@H](F)CNC(=O)c1cnc(Nc2nc3ccnn3cc2F)cc1NC1CCCC1F` (some centres unmarked) [Example 471], in experiment [1], the IC50 was found to be 1200 nM.

Consider `CC(C)(O)[C@H](F)CNC(=O)c1cnc(Nc2nc3ccnn3cc2F)cc1NC1CCCC1F` (some centres unmarked) [Example 472], for which, in experiment [1], the IC50 is 1360 nM.

Take `CC(C)(O)[C@H](F)CNC(=O)c1cnc(Nc2nc3ccnn3cc2F)cc1N[C@H]1CCC[C@H]1F` [Example 488]: in experiment [1] (Homo sapiens, PBMC, 5 h), the EC50 amounted to 192 nM.

Take `CC(C)Nc1cc(Nc2nc3cccnc3cc2F)ncc1C(=O)NC[C@@H](F)C(C)(C)O` [Example 499]: in experiment [1] (Homo sapiens, PBMC, 5 h), the EC50 stood at 72 nM.

As for `CC(C)Nc1cc(Nc2nc3ccnn3cc2F)ncc1C(=O)NCC(F)(F)C(C)(C)O` [Example 522], in experiment [1] (Homo sapiens, PBMC, 5 h), the IC50 was found to be 795 nM.

The IC50 is the concentration needed to halve the response being measured. The EC50 is the concentration that produces a half-maximal response.
